This is an account of results in US9012431B2, “Boron-containing small molecules as anti-inflammatory agents” (Anacor Pharmaceuticals, Inc., priority 2008, dated 2015).

Data set [1] has as its system IFN-γ. The data set can be described thus: Cytokine assay, IFN-γ release from PBMC. It counts as cell-based. Particulars: human PBMC, 20 ug/mL PHA, supernatant at 24 hours. Put shortly:
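Cytokine released into the medium was the read-out. Thawed human peripheral blood mononuclear cells in RPMI 1640/10% FBS received test article at 0.01–10 μM, in triplicate wells.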

Data set [2] concerns Salmonella typhimurium strains TA98, TA100, TA1535, and TA1537. As to the kind of experiment: Bacterial mutagenicity assay with/without Aroclor-induced S9 (Salmonella). It is filed as cell-based. The following applies: up to 5000 μg per plate; presence or absence of Aroclor-induced S9 liver fraction.
For data set [3], the system named is Escherichia coli strain WP2 uvrA. The data set can be described thus: Bacterial mutagenicity assay with/without Aroclor-induced S9 (E. coli). It is filed as cell-based. Particulars: up to 5000 μg per plate; presence or absence of Aroclor-induced S9 liver fraction.
For data set [4], the system named is IL-1β production by human PBMCs. As to the kind of experiment: IL-1β production by LPS- or PHA-stimulated PBMCs. It counts as cell-based.
For data set [5], the system named is IFN-γ secretion from PBMCs. As to the kind of experiment: IFN-γ secretion from PBMCs stimulated with PHA. It counts as cell-based, human. Particulars: PBMC. An excerpt:
Compounds were screened by a biochemical assay against PDE4 enzyme and cell-based cytokine release assays using PBMCs stimulated by LPS or phytohemagglutinin (PHA).

The test system of data set [6] is IL-10 production by human PBMCs. As to the kind of experiment: IL-10 production by LPS- or PHA-stimulated PBMCs. It is filed as cell-based.
In data set [7] the test system is IL-23 production from human THP-1 macrophages. The data set can be described thus: IL-23 production by THP-1 cells stimulated with IFN-g and LPS. It is filed as cell-based.
The subject of data set [8] is shrews (Suncus murinus). The following applies: shrew (Suncus murinus), in vivo, po.

Molecules are shown by their SMILES. Like-named read-outs stand apart in the source and are kept apart here. A value given as a limit tells only on which side of the number the result lay.

What is called IC50 is the concentration at which inhibition is half-maximal.

`N#Cc1ccc(Oc2ccc3c(c2)COB3O)cc1` [C17, 5-(4-cyanophenoxy)-1-hydroxy-1,3-dihydro-2,1-benzoxaborole]: the IC50 in data set [1] was below 1 µM; in data set [4] (PBMC, LPS- and PHA-induced cytokine production by human PBMCs, read-out: IC50 IL-1β (pro-inflammatory cytokines)), above 30 µM; in data set [5] (Homo sapiens, PBMCs stimulated with PHA, read-out: IFN-γ secretion IC50), 0.27 µM; in data set [5] (LPS- and PHA-induced cytokine production by human PBMCs, read-out: IC50 IFNg (Th1 cytokines)) it was below 1 µM; in data set [6] (PBMC, LPS- and PHA-induced cytokine production by human PBMCs, read-out: IC50 IL-10 (Th2 cytokines)) it was below 1 µM; in data set [7] (human THP-1 macrophages, read-out: IL-23 production IC50), 2.25 µM. In addition, the IC50 in data set [7] (human THP-1 monocytic cells stimulated with IFN-g and LPS, read-out: IC50 IL-23*) lay within 1 to 10 µM. The mutagenic activity result in data set [2] and in data set [3] was “no mutagenic activity” in each case. Moreover, the “effect on IL-1” value in data set [4] (PBMCs) is “not affected”. For the same compound, the “IL-10 inhibition, range in words” value in data set [6] (PBMCs) is listed as “low micromolar range”. Further, in data set [8], the “no-observed-effect level (NOEL), emesis” value was 10 mg/kg.
